Test results as given in US20040063710A1, “Ophthalmological preparations” (priority 2000, published 2004).

How the values were obtained:
retinal ganglion cells = assay: Inhibitory effect against retinal ganglion cell death caused by glutamate; type: cell-based, Wister rat; conditions: 10^-7 M, 10^-6 M, 10^-5 M MCI-154; 250 μM glutamate, 48 hours culture; versus control group
Method: In accordance with the method of Otori et al. (Investigative Ophthalmology & Visual Science, Vol. 39, No. 6, 1998), retinal ganglion cells were isolated from a 6 day-old Wister rat, and approximately 300 cells were plated on each cover glass having a diameter of 12 mm with poly-L-lysine and laminin coatings, that was inserted in each well of a 24-well culture plate, and then were cultured for 24 hours. The cells were divided into an untreated group, a control group, and medicament-treated group, each consisting of 2 wells. To the untreated and control groups, a basic culture medium was added, and to the medicament-treated groups, MCI-154 was added at various concentrations. After 4 hours of culture, 250 μM of glutamate was added to all of the groups except for the untreated group, followed by further culture for 48 hours. After the culture for 48 hours, cells were stained with 1 μM calcein acetoxymethyl ester, and the number of cells with neurites growing more than twice as long as the cell body diameter was counted as viable cells under a fluorescence microscope. Independent three experiments were performed in duplicate.
Medicament-treated group: 10^−7 M, 10^−6 M, and 10^−5 M MCI-154
Basic culture medium: Neurobasal (Gibco, Grand Island, N.Y.) including 1 mM glutamine, 10 μg/ml gentamycin, and 40 ng/ml […], CNTF, and b-FGF. […]

[1] = tested on: retinal degeneration caused by transient retinal ischemia; assay: Inhibitory effect against retinal degeneration induced by transient retinal ischemia; type: in vivo, Wister male rats; conditions: 0.1 mg/kg into caudal vein just before and immediately after ocular hypertension treatment (130 mmHg, 50 minutes); 7 days after; versus control group
Method: Wister male rats (body weight of about 200 g) was used. Each animal was subjected to sufficient warming treatment by using a thermal plate under anesthesia, and the head was fixed by using a stereotaxic apparatus. In order to induce transient retinal ischemia, IOP was maintained at 130 mmHg for 50 minutes by injecting intraocular irrigating solution into the anterior chamber via the cornea using an infusion tube and 30 G injection needle which were connected to a bottle held at 174 cm above the eyes (ocular hypertension treatment) according to the method of Akaike (Folia Pharmacologica Japonica, 111, pp.97-104(1998)). The ocular hypertension treatment was performed only on the right eye, and the left eye was left untreated. Just before and immediately after the ocular hypertension treatment, a physiological saline or a dose of 0.1 mg/kg of MCI0154 was injected to the caudal vein. Seven days after the ocular hypertension treatment, the animal was sacrificed under anesthesia, and eyeballs were isolated and a light microscopic specimens of horizontal sections of retina were prepared. Under a microscope, thickness of the retina (from inner plexiform layer to outer plexiform layer) was measured using a micrometer. […] 7 days after the ocular hypertension treatment. Data represent means±SEM (standard errors), and the number of rats for each group was 10. […]

[2] = tested on: left atrium of guinea pig; assay: Isolated left atrium of guinea pig; conditions: Dose 3 × 10^-5 g/ml
Method: A left atrium was isolated from a male guinea pig with 200-300 g of body weight soon after striking on the back of its head. The mitral orifice was fixed to the bottom of an organ bath filled with 30 ml of Krebs-Henseleit solution maintained at 35° C. A gas mixture comprising 95% O2 and 5% CO2 was passed through the Krebs-Henseleit solution in the organ bath. Isometric tension was measured by connecting a left auricle of heart and a transducer by a yarn. A resting tension of 0.5 g was given to the atrium, which was then electrically driven with square pulses with duration of 1 msec and voltage of 1.5 times as much as threshold in the rate 2 Hz via dipolar platinum electrodes. After stabilizing the atrium for 30 minutes from its preparation, the compound dissolved in a solvent was added to the organ bath to measure its effect.

## O=C1CCC(c2ccc(Nc3ccncc3)cc2)=NN1 [MCI-154, 6-[4-(4-pyridylamino)phenyl]-4,5-dihydro-3 (2H)pyridazinone]
Retinal ganglion cells
  inhibition of retinal ganglion cell death induced by glutamate (viable cells relative to untreated group): significantly inhibits
[1]
  inhibition of retinal degeneration caused by transient retinal ischemia (retinal thickness ratio): significantly inhibits
[2]
  Contraction of left atrium of guinea pig, Increase (%): 188%
